Data reported in US8598342B2, “Methods and compounds for antimicrobial intervention” (President and Fellows of Harvard College, priority 2008, dated 2013).
Entries after “also recorded” stand apart in the source; their conditions may differ. Read-outs that look alike come from different tables or passages of the source.

Key:
[1] = system: wildtype S. aureus RN4220; test: MIC / growth inhibition of wildtype S. aureus RN4220 (optical density); format: cell-based; conditions: Staphylococcus aureus
Protocol: (§1) (A) Targocil MIC data for a panel of Gram-positive strains, including MRSA clinical isolates B5271 and 5340A. Growth was monitored in triplicate after 12 h at 28° C. using optical density. (B) Two dimensional drug interaction analysis between tunicamycin and targocil grown for 18 h at 30° C. […] At higher concentrations, tunicamycin is toxic because it inhibits cell wall biosynthesis. […] Varying concentrations of drug were added to […] of S. aureus RN4220 after 5 h and cell count was monitored over time at 30° C. […] Cells were grown at 28° C. for 12 h and monitored for growth using optical density (OD600). Data were normalized to the DMSO controls for each strain. (E) Two classes of mutants were examined: phage resistant (m1 3) and phage sensitive (m4-5).
A library of 55,000 small molecules was screened in duplicate at a concentration of ˜40 μM against S. aureus RN4220 and the corresponding ΔtarO strain using optical density to monitor growth. We obtained 45 initial hits and confirmed three lead compounds that inhibited the growth of the wildtype strain but had no activity against the ΔtarO strain. […] (FIG. 16A and FIG. 18) (Lazarevic V, Abellan F X, Moller S B, Karamata D, & Mauel C (2002) Microbiology-Sgm 148:815-824)
On the night before screening, a single colony of each strain was grown in TSB (Cm 10). On the day of screening, 384 well plates (Corning® 3710) were filled with […] of TSB (Cm 10). […]
The following day the plates were read using a Perkin Elmer Envision plate reader for both OD600 and fluorescence at the appropriate wavelength for Gfp ([…]) and Mcherry ([…]). Data were collected and analyzed to identify compounds that killed the wildtype strain but not the ΔtanO mutant. […]
For a secondary screen, hits from the primary screen were evaluated against wildtype and the ΔtarO mutant as described above, but the compound was investigated using a four point dose-response curve starting at a concentration of 50 μM and doing two-fold serial dilutions. […]

[2] = target: T1, S. aureus TarD (Staphylococcus aureus, UniProt Q2G2X2); test: In vitro enzyme inhibition assay, TarD (radiometric); format: biochemical; conditions: targocil 50 μg/mL; enzyme 200 nM
T1 construct: made in house
T1 sequence (Q2G2X2 1-132): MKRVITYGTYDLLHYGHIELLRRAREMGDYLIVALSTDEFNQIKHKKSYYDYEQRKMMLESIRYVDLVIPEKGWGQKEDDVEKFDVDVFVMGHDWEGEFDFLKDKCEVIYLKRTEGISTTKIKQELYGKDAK
Protocol: S. aureus TarB, D, F, I, and L were cloned, overexpressed and purified as described previously (S. Brown, Y. H. Zhang, S. Walker, Chemistry & Biology 15, 12, Jan. 2008.) Radiometric in vitro assays were run to test the inhibitory effects of targocil on Tar B, D, F, and L, while TarI was assayed for targocil inhibition using an HPLC assay using conditions similar to those previously reported (ibid). See below for exact reaction conditions. […] In each case, a reaction with no targocil served as a negative control (active enzymatic reaction) and a reaction with heat-treated enzyme served as a positive control (no enzymatic reaction). Targocil was incubated with all reaction components except the substrates at room temperature. After 10 minutes, substrates were added and the reactions were allowed to proceed for 60 minutes. The reactions were quenched with DMF and the products were imaged/monitored as previously described (ibid).
TarD in vitro inhibition assay protocol and data. Each 3 μL reaction contained 50 mM HEPES pH 8, 10 mM MgCl2, 1 mM DTT, 1 μM [14C]-glycerol-3-phosphate, 9 μM glycerol-3-phosphate, 20 μM CTP, 200 nM TarD. The reactions were quenched with 3 μL DMF, and 2 μL of the reaction mixture were combined with 2 μL 2× loading dye (40% glycerol, 0.2% bromophenol blue) and loaded onto a 20% acrylamide/0.25M TBE gel as described previously (ibid.). […]

[3] = system: S. aureus strain expressing B. subtilis 168 TagGH; test: Growth of S. aureus RN4220 expressing B. subtilis 168 tagGH; format: cell-based, Staphylococcus aureus; conditions: 28° C., 12 h, OD600
Protocol: as §1

[4] = system: S. aureus RN4220 invasion of human corneal epithelial cells (HCEC); test: Human corneal epithelial cell (HCEC) invasion / internalization model; format: cell-based, Staphylococcus aureus; conditions: wildtype S. aureus grown with 8×MIC (20 μg/mL) of targocil
Protocol: An overnight culture of S. aureus RN4220 and its isogenic ΔtarO strain were grown with shaking at 37° C. in either 1% DMSO or in the presence of 8×MIC (20 μg/mL) of targocil 1% DMSO. Human corneal epithelial cells (HCEC) were cultured separately in 24-well plates. Prior to incubation with HCEC, the bacteria were washed twice with keratinocyte culture media—serum free (KBM-SFM) including 8×MIC of targocil in 1% DMSO or 1% DMSO. The S. aureus strains (approximately 10^8 CFU in 1 mL of KBM-SFM including either 8×MIC of targocil 1% DMSO or 1% DMSO) were then applied to the HCEC monolayers. (The initial inoculum of each group was determined by serial dilution and plate counting.) Following incubation at 37° C. for 1 h, bacteria were removed and the monolayers were washed twice with Hank's balanced salt solution (HBSS), and covered with 1 mL of KBM-SFM containing gentamycin (100 μg/mL) and incubated at 37° C. for 1 h to kill residual extracellular bacteria. The monolayers were washed twice with HBSS, lysed, and homogenized in 1 mL of lysis solution (0.25% trypsin-0.025% Triton X-100). Lysates were serially diluted and plated on brain-heart infusion agar, and colonies were enumerated following overnight incubation at 37° C.
The data workup was done by first determining the percentage of internalized bacteria compared to the initial inoculum. […]

Question: What does the source list for `CCN(CC)c1nc2c(S(=O)(=O)c3ccccc3)nnn2c2ccc(Cl)cc12` [7-chloro-N,N-diethyl-3-(phenylsulfonyl)-[1,2,3]triazolo[1,5-a]quinazolin-5-amine]?
Answer: MIC ([1]; read-out: minimum inhibitory concentration (MIC)): 1.3 µg/mL; MIC ([1]; result of the WTA inhibitor screen, read-out: minimum inhibitory concentration): ~3 µM; MIC ([1]; wildtype S. aureus RN4220, read-out: minimum inhibitory concentration (MIC)): 3 µM; inhibition of TarD [2]: None of these enzymes was inhibited; resistance to targocil of strain expressing B. subtilis 168 TagGH [3]: fully resistant; also recorded: complete resistance; invasion of HCECs by targocil-treated bacteria [4]: behaved similarly to the ΔtarO strain
